Source: patent US20240270760A1, “GLYCERIC ACID, GLYCERATE, AND COMPOSITION THEREOF” (INNER MONGOLIA KINGDOMWAY PHARMACEUTICAL CO., LTD., priority 2023, published 2024)

Tests used:
Alcohol metabolism = Alcohol metabolism test: ethanol content in venous blood after composition and ethanol feeding; type: in vivo, mice; details: for Percentage decrease compared to comparative group: decrease of venous blood ethanol content versus physiological saline group (75.0 mg/100 mL); for Ethanol content: venous blood 1 hour after 2 mL of 5% edible ethanol, 2 mL composition solution (4.5 g in 15 mL physiological saline) fed 1 hour before ethanol, 7 animals per group, GC-FID
Description: The test was divided into test groups and comparative groups. Each group included 7 healthy animals (e.g., mice). The healthy animals were fed in the laboratory for 10 days to adapt to the test environment, and then fasting was maintained 12 hours before the start of the test.
4.5 g of the compositions obtained in preparation examples 10-31 and comparative examples 1-8 were respectively dissolved in 15 mL of physiological saline to prepare composition solutions. The animals in the test groups were fed with 2 mL of the composition solution respectively, and the animals in the comparative group were fed with the same dose of normal saline. 1 hour later, the animals in the test groups and the comparative groups were fed with 2 mL of 5% edible ethanol, respectively. 1 hour later, the venous blood of the animals was collected. The ethanol content in the venous blood was detected by a gas chromatography-hydrogen flame ionization detector.

[1] = Dissolution of calcium glycerate forms in water at 37±0.2° C. (FIG. 9); type: physicochemical; details: comparison between forms

Question: What does the source list for O=C(O)[C@H](O)CO [compound 5, D-glyceric acid]?
Answer: Percentage decrease compared to comparative group (Alcohol metabolism): 15.2%; Ethanol content (Alcohol metabolism): 63.6 mg/100 mL

Question: For O=C([O][Ca][O]C(=O)[C@H](O)CO)[C@H](O)CO [crystalline Form II, calcium D-glycerate], which dissolution rate [1] is on record?
Answer: faster than that of crystalline Form I

Question: With O=C(O)[C@H](O)CO [compound 1, D-glyceric acid] as the compound, how does the “Percentage decrease compared to comparative group” value (Alcohol metabolism) read?
Answer: 14.8%

Question: And the Ethanol content (Alcohol metabolism)?
Answer: 63.9 mg/100 mL
